Values of other authors as cited in US20220062352A1, “COMPOSITIONS FOR THE TREATMENT OF CONDITIONS” (Demata Therapeutics, LLC, priority 2018, published 2022).

Tested on: acne vulgaris subjects

CC(=O)N[C@H]1C(O)O[C@H](CO)[C@@H](O)[C@@H]1O (stereo partly drawn) [NAG, N-acetyl-D-glucosamine]
tolerability versus 10% benzoyl peroxide (acne vulgaris subjects): better tolerated by the subjects than 10% benzoyl peroxide
number of acne lesions (over an 8-week period): quickly reduced the number of acne lesions
